# Experimental data reported in PMC10573892, “β-Lactam TRPM8 Antagonists Derived from Phe-Phenylalaninol Conjugates: Structure–Activity Relationships and Antiallodynic Activity” (International Journal of Molecular Sciences, 2023).
# How the values were obtained:
# [1] = biological target: T1, rat TRPM8 channel (rTRPM8) (Rattus norvegicus, UniProt Q8R455); test: Ca2+ microfluorimetry, menthol-induced Ca2+ entry in HEK293 cells overexpressing rTRPM8; assay type: cell-based; details: Table 3; rTRPM8, HEK293, activation by 100 µM menthol
# T1 construct: expressed in transfected cells
# Description: The diastereomeric 1,4,4-trisubstitutes β-lactams were evaluated as modulators of the TRPM8 channel by calcium microfluorimetry assays. These assays use a Human Embryonic Kidney 293 (HEK293) cell line that stably overexpressed rat TRPM8 channel (rTRPM8). […] Three separated experiments in triplicate were used.
# The initial biological evaluation of this series of 1,3,4,4-tetrasubstituted β-lactams was performed by calcium microfluorimetry assays using the indicated HEK293 cell line overexpressing rTRPM8 channels.
# (§1) Calcium fluorometry, Patch-Clamp assays and in vivo experiments were performed using the methodology previously described for TRPM8 [35] or TRPM3 [61]. In the Patch -Clamp experiments, the intracellular pipette solution contained (in mM) 140 KCl, 5 EGTA, and 10 mM HEPES, adjusted to pH 7.2 with KOH, and the extracellular solution contained (in mM) 140 NaCl, 2 CaCl2, 1 MgCl2, 10 D-glucose and 10 HEPES, adjusted to pH 7.4 with NaOH. Selectivity against TRPV1, TRPV3, TRPA1 and ASIC3 was subcontracted to Eurofins-CEREP or Eurofins-PANLABS (see ref. [35] for more details).
# [2] = system: dorsal root ganglia (DRG) sensory neurons; test: Resting membrane potential of DRG sensory neurons (current clamp Patch-Clamp); assay type: cell-based; details: 10 µM
# Description: We also investigated the effect of β-lactams derivatives on the resting membrane potential (RMP) of dorsal root ganglia (DRG) sensory neurons.
# (A) Representative recordings of resting membrane potential measured under current clamp configuration. The traces show the action potentials (APs) firings from DRG neurons elicited by 100 μM menthol (left trace) or in the presence of vehicle (0.5% DMSO) or the β-lactams derivatives ([…]). (B) Changes in the Vm in the absence and in the presence of 10 μM of the β-lactams derivatives. Data were analyzed by one-way ANOVA followed by Bonferroni post hoc test for multiple comparisons (ns = no significance, **** p < = 0.0001) and given as mean ± SEM; n ≥ 40 cells from 4 cultures.
# hTRPV3 = biological target: T2, hTRPV3 (Homo sapiens, UniProt Q8NET8); test: TRPV3 channel Ca2+ microfluorimetry (2-APB 30 μM); assay type: cell-based; details: agonist 2-APB 30 μM
# T2 construct: Eurofins-CEREP or Eurofins-PANLABS (contract assay)
# T2 sequence (Q8NET8 1-790): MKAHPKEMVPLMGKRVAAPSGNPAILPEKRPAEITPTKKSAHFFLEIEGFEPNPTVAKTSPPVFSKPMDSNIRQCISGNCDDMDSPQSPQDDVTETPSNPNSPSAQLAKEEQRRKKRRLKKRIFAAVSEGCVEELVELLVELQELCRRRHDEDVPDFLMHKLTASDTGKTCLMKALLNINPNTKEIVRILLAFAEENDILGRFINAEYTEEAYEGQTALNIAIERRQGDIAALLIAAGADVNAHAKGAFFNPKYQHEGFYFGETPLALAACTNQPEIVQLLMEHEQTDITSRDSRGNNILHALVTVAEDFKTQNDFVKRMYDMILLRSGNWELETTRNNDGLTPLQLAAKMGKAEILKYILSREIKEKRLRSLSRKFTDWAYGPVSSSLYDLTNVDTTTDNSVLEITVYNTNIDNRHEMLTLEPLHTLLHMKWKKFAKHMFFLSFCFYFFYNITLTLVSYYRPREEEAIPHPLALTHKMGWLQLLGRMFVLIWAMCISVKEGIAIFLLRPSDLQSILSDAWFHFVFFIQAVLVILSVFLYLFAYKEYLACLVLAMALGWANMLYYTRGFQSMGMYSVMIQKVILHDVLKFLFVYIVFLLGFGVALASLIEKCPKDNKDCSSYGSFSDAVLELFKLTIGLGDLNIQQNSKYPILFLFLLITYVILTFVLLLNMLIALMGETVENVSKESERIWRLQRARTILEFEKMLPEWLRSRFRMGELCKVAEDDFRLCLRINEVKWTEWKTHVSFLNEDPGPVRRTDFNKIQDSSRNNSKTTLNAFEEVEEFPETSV
# Text: The effects of compound 34 have been evaluated on different ion channels and receptors implicated in pain-related processes to assess the selectivity for TRPM8 channels. First, some TRP channels that play a role in temperature integration and nociception were selected, including hTRPV1, hTRPV3, hTRPA1 and TRPM3. Additionally, the evaluation encompassed the hASIC3 channel with widespread distribution within the peripheral nervous system and contributions to the excitability of primary sensory neurons. In each instance, the compound was subjected to evaluation at a consistent concentration of 10 µM.
# as §1
# hM3 = hM3 (Homo sapiens, UniProt P20309); test: Radioligand binding at muscarinic M3 receptor; details: radioligand [3H]4-DMAP
# Text: Furthermore, the investigation extended to measuring the binding affinity of compound 34 to calcitonin gene-related peptide hCGRPR, cannabinoid hCB2 and muscarinic hM3 receptors, which are all relevant to different pain conditions.
# [3] = system: oxaliplatin-induced cold hypersensitivity; test: Oxaliplatin-induced cold allodynia in mice (acetone drop test); assay type: in vivo
# Text: It is established that treatments with the chemotherapeutic drug oxaliplatin (OXA) induce painful peripheral neuropathy, known as CIPN, which becomes more pronounced in cold conditions. The TRPM8 channel has been implicated in mouse models of CIPN pain induced by OXA [19, 51]. In fact, the OXA-induced peripheral neuropathy mouse model is being used for the pharmacological characterization of TRPM8 antagonists. For this peripheral neuropathy assay, mice were subcutaneously (s.c.) injected with OXA at a dose of 6 mg/kg dose on days 1, 3 and 5 to male mice to induce increased sensitivity to cold, which can be monitored through the acetone drop test.
# Consequently, compounds 34 and 35 have been tested for their ability to alleviate OXA-induced cold hypersensitivity after intraplantar administration (i.pl., 3, 1 and 0.1 μg). […] This effect was observed 15 min post-administration and sustained up to 60 min.
# as §1
# Figure 4 Effects of compounds 34 (A) and 35 (B) on the oxaliplatin (OXP)-induced cold hypersensitivity (drop acetone test). Peripheral neuropathy was induced in male mice by injecting OXA (6 mg/kg, s.c.) on days 1, 3 and 5. Control animals were treated with vehicle. Compounds 34 (A) and 35 (B) (3 µg/i.pl., 1 µg/i.pl. and 0.1 µg/i.pl.) were administered to the OXP-treated animals, and the time-course of cold hypersensitivity was measured. Data are given ± SEM (n = 5). Statistical analysis, comparing with oxaliplatin-treated mice, was performed by two-way ANOVA followed by post hoc Bonferroni test by multiple comparisons: * […], ** p < 0.01, **** p < 0.0001.
# Chain of hM3 (P20309 whole entry): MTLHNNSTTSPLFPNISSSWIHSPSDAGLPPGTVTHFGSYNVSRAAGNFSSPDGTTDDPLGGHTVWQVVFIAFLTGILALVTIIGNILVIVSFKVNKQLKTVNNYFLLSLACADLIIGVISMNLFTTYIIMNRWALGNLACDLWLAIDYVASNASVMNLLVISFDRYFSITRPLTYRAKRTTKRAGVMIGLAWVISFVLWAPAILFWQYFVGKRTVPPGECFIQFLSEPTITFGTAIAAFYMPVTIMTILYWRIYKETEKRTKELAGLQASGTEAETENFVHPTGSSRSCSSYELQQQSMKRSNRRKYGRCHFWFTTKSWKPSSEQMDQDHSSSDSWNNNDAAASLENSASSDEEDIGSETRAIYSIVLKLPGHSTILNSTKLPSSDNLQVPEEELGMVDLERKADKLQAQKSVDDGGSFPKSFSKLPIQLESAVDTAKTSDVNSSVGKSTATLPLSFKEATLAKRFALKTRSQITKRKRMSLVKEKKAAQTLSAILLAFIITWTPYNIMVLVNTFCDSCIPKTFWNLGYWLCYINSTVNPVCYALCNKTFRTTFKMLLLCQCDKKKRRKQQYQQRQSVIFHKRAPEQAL
# T1 sequence (Q8R455 whole entry): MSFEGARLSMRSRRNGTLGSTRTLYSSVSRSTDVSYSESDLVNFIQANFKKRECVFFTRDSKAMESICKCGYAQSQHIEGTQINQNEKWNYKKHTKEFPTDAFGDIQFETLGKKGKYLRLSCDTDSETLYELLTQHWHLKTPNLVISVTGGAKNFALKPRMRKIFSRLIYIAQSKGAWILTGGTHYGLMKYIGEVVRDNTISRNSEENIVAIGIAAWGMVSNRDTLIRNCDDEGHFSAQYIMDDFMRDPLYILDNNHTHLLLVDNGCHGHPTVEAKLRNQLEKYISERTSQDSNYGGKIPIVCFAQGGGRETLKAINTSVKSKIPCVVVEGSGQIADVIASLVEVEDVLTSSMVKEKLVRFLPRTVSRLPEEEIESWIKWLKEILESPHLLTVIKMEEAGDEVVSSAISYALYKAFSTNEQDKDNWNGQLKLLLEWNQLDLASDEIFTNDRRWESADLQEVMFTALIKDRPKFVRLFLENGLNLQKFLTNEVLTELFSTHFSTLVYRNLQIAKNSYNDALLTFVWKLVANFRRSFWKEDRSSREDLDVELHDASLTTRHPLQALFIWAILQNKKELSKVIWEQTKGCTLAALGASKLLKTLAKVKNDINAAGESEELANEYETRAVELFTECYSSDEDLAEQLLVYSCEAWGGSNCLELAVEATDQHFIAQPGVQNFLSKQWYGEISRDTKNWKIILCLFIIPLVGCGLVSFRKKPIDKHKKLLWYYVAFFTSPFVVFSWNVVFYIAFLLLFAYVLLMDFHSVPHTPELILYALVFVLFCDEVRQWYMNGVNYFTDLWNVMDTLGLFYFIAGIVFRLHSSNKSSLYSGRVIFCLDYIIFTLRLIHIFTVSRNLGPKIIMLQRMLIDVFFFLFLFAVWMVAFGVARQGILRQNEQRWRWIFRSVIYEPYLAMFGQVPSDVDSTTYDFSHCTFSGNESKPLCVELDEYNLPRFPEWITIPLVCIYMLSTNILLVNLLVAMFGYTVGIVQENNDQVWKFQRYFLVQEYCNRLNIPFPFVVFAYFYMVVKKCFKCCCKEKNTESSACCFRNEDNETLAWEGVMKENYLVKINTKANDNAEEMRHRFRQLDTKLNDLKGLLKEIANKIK
smiles,measurement,setting,value
"CC(C)CNC(=O)[C@]1(Cc2ccccc2)[C@H](C)C(=O)N1C[C@H](Cc1ccccc1)N(Cc1ccccc1)Cc1ccccc1 [Compound 34, 4S-Benzyl-4-[N-(iso-butyl)-carbamoyl]-3S-methyl-1-[(2′S-dibenzylamino-3′-phenyl)prop-1′-yl]-2-oxoazetidine]",IC50,[1],0.3 µM
same,effect on resting membrane potential (RMP),[2],did not alter the RMP
same,inhibition at 10 µM,hTRPV3,17.3 ± 5.7%
same,inhibition at 10 µM,hM3,5.2 ± 3.2%
same,time the antiallodynic effect is sustained,"[3]; i.pl., observed from 15 min post-administration",up to 60 min
same,effect on cold-induced paw licking,"[3]; male mice, OXA 6 mg/kg s.c. days 1, 3, 5, i.pl. 3, 1 and 0.1 μg",dose-dependent and significant reduction
